For this experiment, the system named is patients with T2DM with HbA1c between ≥7.0% and ≤10.5% on metformin or metformin plus an SGLT-2 inhibitor. In words: Example 1 clinical trial using tirzepatide, 52 weeks, versus insulin degludec. The format is in vivo, human. Particulars: standard titration protocol. The source says: The enrollment criteria, set forth in Table 1 below, are designed to include participants who are similar to patients seen within a typical diabetes practice, and include some patient with type 2 diabetes that is refractory to oral treatment. Geriatric patients are included. Mean duration with type 2 diabetes about 8 years. Study continues for 52 weeks.
The study is designed to consist of a screening visit followed by a single-blind 3-week placebo run-in period. Afterwards, patients are randomized to tirzepatide 5, 10, or 15 mg (dosed using an escalation dose protocol) or insulin degludec (standard titration protocol) and followed at approximately monthly intervals. Patients receiving insulin degludec follow standard insulin degludec titration protocol during the study. Study protocol includes blood pressure measurement at each visit and serum lipid profile at study initiation and at 52 weeks using standard clinical methods. Blood Pressure measures using the methods of Example 1 are represented in FIGS. 3 and 4. HDL-C levels using the methods of Example 1 are represented in FIG. 1.

Regarding insulin degludec, the “Percent patients achieving ≤5.7% HbA1c by 52 weeks” value was “insulin degludec: 5.4%”.

For the origin of these results see US20240100127A1, “TIRZEPATIDE THERAPEUTIC METHODS” (Eli Lilly and Company, priority 2021, published 2024).
